Experiments:
[1] = test system: gene switch controlled mbIL-15 expression in CD19-specific CAR T cells; test: Flow cytometry of mbIL-15 expression, veledimex ON-OFF-ON, SB gene switch CD19 CAR-T cells; format: cell-based, human
Protocol: Various DNA plasmids expressing a SB transposon system, i.e. SB11, membrane bound IL-15 (mbIL-15), and chimeric antigen receptor (CAR), were transfected to peripheral blood mononuclear cells (PBMC) via nucleofection to redirect T cell specificity (FIG. 1).
On day 0, 20 million PBMC were resuspended in 100 μL of Amaxa Human T cell Nucleofector solution (Cat. no. VPA-1002; Lonza, Basel, Switzerland) mixed with a total of 15 μg of transposons and 5 μg of transposase (SB11) and electroporated.
The following day (day 1) cells were counted, and CAR expression was measured by flow cytometry. CAR T Cells were stimulated with either γ-irradiated (100 Gy) or mitomycin C treated AaPCs at a 1:1 ratio. The AaPC cells used were K562-AaPC expressing CD19 antigen. Cultures were supplemented with IL-21 (30 ng/ml) only for the first round of stimulation and subsequently with recombinant human IL-2 (50 IU/ml) and IL-21 (30 ng/ml) (Pepro Tech) for remaining stimulations. T cell cultures were phenotyped at the end of each stimulation cycle, which typically lasted 7 days. The cultures were phenotyped for CAR expression by multi-parameter flow cytometry utilizing either Protein L or anti-idiotype antibody that recognizes CD19-specific CAR. Cultures were also closely monitored for the outgrowth of NK cells (defined as CD3negCD56+ population) and were removed from the CAR T cell cultures when the percentage exceeded 10% of total cell populations using magnetic beads for specific for CD56 (Stem Cell Technologies and/or Miltenyi Biotec), according to the manufacturer's instructions.
CD19-specific T cells were generated from mononuclear cells (MNC) derived from PB or UCB using SB transposition to introduce the CAR followed by addition of AaPC to numerically expand the T cells in a CAR-dependent manner.
For flow cytometry analysis to assess expression of various markers and gene(s) of interest, cells were gently resuspended and cell number, and viability were measured using Trypan blue exclusion method with the Countess instrument. Cell diameter size was also recorded. 5×10^5 cells for each for the samples were harvested at 330×g for 4 min at 10° C. for antibody staining. Harvested cells were incubated on ice for at least 15 min with 10% human AB serum in HBSS. Antibody cocktails containing fluorescently conjugated antibodies included one or more of antibodies specific to CD4 (Clone RPA-T4), CD8 (Clone SK1), CD3 (Clone UCHT1), CD56, CD19-specific CAR (anti-idiotype antibody), IL-15, and IL-15Rα, in HBSS+0.1% BSA+2 mM EDTA. The prepared antibody cocktails and associated fluorescence minus one/isotype control were added to stain the cell samples, and then the samples were incubated on ice for 30 min. The samples were then washed then with FACS buffer (HBSS+0.5% BSA+2 mM EDTA) and stained with Fixable Viability Dye (eBiosciences) for 30 min on ice. Cells were washed with FACS buffer and then fixed with a 4% paraformaldehyde solution (BD Cytofix; BD Biosciences). All samples were run on a LSR II flow cytometer, a Fortessa X-20 flow cytometer (BD Biosciences) or iQue Screener Plus (Intellicyt) and data was analyzed using FlowJo V10 (TreeStar, Ashland, Oreg.) or iQue Screener software.
For induction of expression using ligand (veledimex), AaPC stimulated CAR-T cells were harvested at 1×10^6 cells/ml. Either veledimex or DMSO (to keep DMSO concentration constant in both cultures) was added to the cultures. Veledimex was used at a concentration of 20 nM, 50 nM, 100 nM or as described. Cells were then cultured at 37° C. in presence of veledimex or DMSO for 2-3 days. After 2-3 days in culture, 5×10^5 cells for each for the samples were harvested at 330×g for 4 min at 10° C. for antibody staining. Harvested cells were incubated on ice for at least 15 min with 10% human AB serum in HBSS. […]

[2] = test system: RTS-mbIL-15 in CD19 CAR T cells; test: Western blot of mbIL-15 expression; format: cell-based, human; conditions: CD19 CAR+RTS-mbIL-15 cells, veledimex 2-3 days after four rounds of stimulation
Protocol: PBMC were nucleofected with plasmids of Sleeping Beauty system to express CD19-specific CAR under constitutive promoter (CD19 CAR alone), or CD19-specific CAR and mbIL-15 both under constitutive promoters (CD19 CAR+constitutive-mbIL-15) or CD19-specific CAR under constitutive promoter and RTS-mbIL-15 (CD19 CAR+RTS-mbIL-15). Nucleofected cells were cultured in presence of AaPC as described in Example 1.
After four rounds of stimulations, cells were cultured in absence (CD19 CAR alone, CD19 CAR+constitutive-mbIL-15 and CD19 CAR+RTS-mbIL-15) or presence (CD19 CAR+RTS-mbIL-15) of veledimex for 2-3 days. Cell lysates were prepared for western blot analysis. Approximately 10 μg lysate/lane of NuPAGE 10% Bis-Tris gel was loaded. Proteins were transferred from gel to a polyvinylidene fluoride (PVDF) membranes using the iBlot® (Life Technologies) semi-dry transfer apparatus. Membrane was blocked using a 5% (w/v) powdered milk solution in a PBS+Tween-20 (PBST; 1×PBS+0.05% Tween-20) solution stained with goat anti-human IL-15 (R&D Systems) primary antibody and rabbit anti-goat IgG HRP (KPL Laboratories) secondary antibody. […]
Image of the western blot were captured on the FluorChem™ E Imager (ProteinSimple, San Jose, Calif.) system using the Digital Darkroom software and AlphaView® software (ProteinSimple). […] In CD19 CAR+constitutive-mbIL-15 positive control, expression of mbIL-15 was detected.

[3] = test system: RTS-IL-12 in EGFRvIII-CAR T cells; test: Veledimex dose-response of IL-12, ELISA; format: cell-based
Protocol: EGFRvIII-CAR T cells with or without RTS-IL-12 were expanded ex vi by three successive rounds of stimulation with EGFRvIII^+ AaPCs. T cells were then treated with varying doses of veledimex from 0 nM (DMSO control) to 100 nM. At 48 h post veledimex treatment, culture supernatants were harvested analyzed for IL-12 levels by ELISA. EGFRvIII-CAR expression in all groups was confirmed with flow cytometry and was stable with increasing doses of veledimex (data not shown) as expected with CAR expression under control of a constitutive promoter.

Compound: CCC[C@@H](N(NC(=O)c1cccc(OC)c1CC)C(=O)c1cc(C)cc(C)c1)C(C)(C)C [veledimex, N-[(1R)-1-(1,1-dimethylethyl)butyl]-N′-(2-ethyl-3-methoxybenzoyl)-3,5-dimethylbenzohydrazide]
- mbIL-15 expression versus veledimex concentration ([1]; 2 day incubation at 100, 25, 6.25, 1.56, 0.4 and 0 nM, gated FSC/SSC/LIVE/CD3+): dose response
- expression of mbIL-15 post ligand addition ([1]; day 29 post nucleofection, gated on CD19-specific CAR positive populations): turned on
- expression of mbIL-15 post ligand withdrawal ([1]; day 35 post nucleofection, gated on CD19-specific CAR positive populations): turned off
- expression of mbIL-15 after re-introduction of ligand ([1]; day 40 post nucleofection, gated on CD19-specific CAR positive populations): maintained
- expression of mbIL-15 after re-introduction of ligand ([1]; day 48 post nucleofection, gated on CD19-specific CAR positive populations): continuously maintained
- expression of mbIL-15 after re-introduction of ligand ([1]; day 50 post nucleofection, gated on CD19-specific CAR positive populations): continuously maintained
- mbIL-15 expression by western blot [2]: strong expression of mbIL-15
- IL-12 production versus veledimex dose ([3]; 0 nM to 100 nM, 48 h post treatment): dose dependent
- EGFRvIII-CAR expression with increasing doses of veledimex ([3]; flow cytometry, data not shown): stable

Source: patent US11692194B2, “Modulating expression of polypeptides via new gene switch expression systems” (Precigen, Inc., priority 2017, dated 2023)
